Measured values from ChEMBL document CHEMBL5465560, “Selectivity Literature for EUbOPEN Chemogenomic Library” (2024).
One block for each molecule: values may come before it.

Experiments:
[1] = biological target: Serine/threonine-protein kinase tousled-like 2 (Homo sapiens) (UniProt Q86UE8); test: Selectivity interaction (LanthaScreen Eu Kinase Binding Assay) EUB0001632a TLK2; settings: at 10 µM
[2] = biological target: T1, cGMP-dependent protein kinase 2 (Homo sapiens) (UniProt Q13237); test: Selectivity interaction (KinomeScan (DiscoverX)) EUB0000666a PRKG2; settings: at 10 µM
T1 sequence (whole entry): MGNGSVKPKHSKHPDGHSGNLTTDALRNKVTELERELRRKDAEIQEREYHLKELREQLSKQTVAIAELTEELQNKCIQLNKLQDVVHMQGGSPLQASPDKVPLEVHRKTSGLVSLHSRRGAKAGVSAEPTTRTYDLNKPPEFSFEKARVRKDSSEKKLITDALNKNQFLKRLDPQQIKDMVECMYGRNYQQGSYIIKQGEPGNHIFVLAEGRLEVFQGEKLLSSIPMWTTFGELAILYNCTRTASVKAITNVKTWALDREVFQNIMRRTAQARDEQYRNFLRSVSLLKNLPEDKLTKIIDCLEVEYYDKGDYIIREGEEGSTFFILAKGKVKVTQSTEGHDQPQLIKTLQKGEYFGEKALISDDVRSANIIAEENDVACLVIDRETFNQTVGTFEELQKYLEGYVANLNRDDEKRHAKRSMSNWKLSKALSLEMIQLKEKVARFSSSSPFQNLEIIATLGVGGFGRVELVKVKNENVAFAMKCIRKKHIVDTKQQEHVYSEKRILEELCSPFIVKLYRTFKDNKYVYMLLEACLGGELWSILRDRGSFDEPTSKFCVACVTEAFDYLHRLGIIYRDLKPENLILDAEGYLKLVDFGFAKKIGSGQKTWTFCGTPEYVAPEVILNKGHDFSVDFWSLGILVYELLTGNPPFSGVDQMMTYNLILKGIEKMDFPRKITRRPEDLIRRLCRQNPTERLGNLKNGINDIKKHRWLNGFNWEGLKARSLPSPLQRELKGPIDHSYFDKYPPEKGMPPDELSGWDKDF

[3] = biological target: Calcium/calmodulin-dependent protein kinase type 1 (Homo sapiens) (UniProt Q14012); test: Selectivity interaction (Kinase panel (literature)) EUB0001199aCl CAMK1; settings: at 1 µM
[4] = biological target: T2, Serine/threonine-protein kinase Nek10 (Homo sapiens) (UniProt Q6ZWH5); test: Selectivity interaction (Ambit KINOMEscan and KiNATiv profiling in Jurkat cells) EUB0000090b NEK10; assay type: cell-based; settings: at 1 µM
T2 sequence (whole entry): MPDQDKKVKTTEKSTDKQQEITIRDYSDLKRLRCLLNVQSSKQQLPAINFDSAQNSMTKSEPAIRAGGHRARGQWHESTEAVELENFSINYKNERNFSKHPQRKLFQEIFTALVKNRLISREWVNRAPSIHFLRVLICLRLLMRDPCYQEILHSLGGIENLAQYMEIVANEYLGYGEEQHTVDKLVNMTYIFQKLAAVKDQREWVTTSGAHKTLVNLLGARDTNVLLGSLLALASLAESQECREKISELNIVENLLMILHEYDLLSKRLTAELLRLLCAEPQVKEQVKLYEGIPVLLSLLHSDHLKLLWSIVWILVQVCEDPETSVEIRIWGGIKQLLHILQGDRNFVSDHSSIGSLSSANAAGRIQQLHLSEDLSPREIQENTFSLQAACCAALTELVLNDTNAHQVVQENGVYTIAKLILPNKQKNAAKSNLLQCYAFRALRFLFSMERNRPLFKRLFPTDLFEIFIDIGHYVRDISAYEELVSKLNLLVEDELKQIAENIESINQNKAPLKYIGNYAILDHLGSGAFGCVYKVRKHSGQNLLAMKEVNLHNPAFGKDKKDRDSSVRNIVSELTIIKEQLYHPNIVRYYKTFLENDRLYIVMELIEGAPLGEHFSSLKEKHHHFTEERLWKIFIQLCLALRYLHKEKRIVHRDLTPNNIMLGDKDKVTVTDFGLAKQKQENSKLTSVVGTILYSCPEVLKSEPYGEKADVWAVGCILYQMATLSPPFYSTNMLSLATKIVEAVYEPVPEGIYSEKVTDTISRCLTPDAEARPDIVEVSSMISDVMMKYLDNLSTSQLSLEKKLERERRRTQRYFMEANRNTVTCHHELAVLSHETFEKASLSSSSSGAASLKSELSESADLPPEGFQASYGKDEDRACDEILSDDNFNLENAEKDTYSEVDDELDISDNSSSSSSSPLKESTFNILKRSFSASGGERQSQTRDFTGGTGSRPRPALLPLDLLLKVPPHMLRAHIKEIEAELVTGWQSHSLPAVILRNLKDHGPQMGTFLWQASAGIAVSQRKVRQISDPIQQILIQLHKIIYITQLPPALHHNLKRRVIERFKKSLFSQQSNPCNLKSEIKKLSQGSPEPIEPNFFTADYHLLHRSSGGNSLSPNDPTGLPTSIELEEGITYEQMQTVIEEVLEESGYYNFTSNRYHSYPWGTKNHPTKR

[5] = biological target: Bone morphogenetic protein receptor type-1A (Homo sapiens, UniProt P36894); test: Selectivity interaction (KinomeScan (DiscoverX)) EUB0000618a BMPR1A; settings: at 10 µM
[6] = biological target: T3, Protein kinase C epsilon type (Homo sapiens) (UniProt Q02156); test: Selectivity interaction (KinomeScan (DiscoverX)) EUB0001619a PRKCE; settings: at 1 µM
T3 sequence (whole entry): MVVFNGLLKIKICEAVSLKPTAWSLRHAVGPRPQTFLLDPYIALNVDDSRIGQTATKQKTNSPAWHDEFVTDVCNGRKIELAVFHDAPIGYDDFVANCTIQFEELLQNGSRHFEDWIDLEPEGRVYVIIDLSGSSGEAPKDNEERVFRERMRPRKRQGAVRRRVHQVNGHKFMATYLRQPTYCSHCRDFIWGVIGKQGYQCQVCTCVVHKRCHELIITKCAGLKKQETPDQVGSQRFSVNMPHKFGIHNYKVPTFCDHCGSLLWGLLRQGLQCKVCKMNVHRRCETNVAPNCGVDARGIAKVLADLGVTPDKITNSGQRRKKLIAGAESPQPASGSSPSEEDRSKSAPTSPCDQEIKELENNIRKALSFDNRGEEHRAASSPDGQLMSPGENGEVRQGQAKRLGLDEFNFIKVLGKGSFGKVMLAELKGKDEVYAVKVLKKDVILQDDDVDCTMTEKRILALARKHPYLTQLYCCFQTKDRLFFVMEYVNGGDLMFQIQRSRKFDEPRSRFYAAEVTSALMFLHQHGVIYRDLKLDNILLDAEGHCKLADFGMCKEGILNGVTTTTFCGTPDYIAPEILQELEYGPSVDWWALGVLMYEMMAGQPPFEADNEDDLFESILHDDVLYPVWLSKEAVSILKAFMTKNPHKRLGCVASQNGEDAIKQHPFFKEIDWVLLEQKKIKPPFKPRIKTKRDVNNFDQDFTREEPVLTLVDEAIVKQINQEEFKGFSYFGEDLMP

Chain of Bone morphogenetic protein receptor type-1A (P36894 whole entry): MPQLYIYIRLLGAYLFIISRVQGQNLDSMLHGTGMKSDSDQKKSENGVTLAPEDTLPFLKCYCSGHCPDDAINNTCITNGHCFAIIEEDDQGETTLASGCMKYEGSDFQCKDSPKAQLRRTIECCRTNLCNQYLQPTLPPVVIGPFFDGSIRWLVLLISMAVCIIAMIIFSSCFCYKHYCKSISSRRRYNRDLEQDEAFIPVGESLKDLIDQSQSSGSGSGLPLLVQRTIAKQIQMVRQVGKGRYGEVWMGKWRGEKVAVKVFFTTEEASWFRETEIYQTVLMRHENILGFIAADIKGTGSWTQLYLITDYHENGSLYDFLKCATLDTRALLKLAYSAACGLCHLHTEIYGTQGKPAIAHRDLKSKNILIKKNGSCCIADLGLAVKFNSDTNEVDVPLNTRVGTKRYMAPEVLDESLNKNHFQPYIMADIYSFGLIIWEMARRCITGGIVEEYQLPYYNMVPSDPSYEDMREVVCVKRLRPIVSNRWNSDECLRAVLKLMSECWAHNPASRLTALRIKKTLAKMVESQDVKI
Chain of Calcium/calmodulin-dependent protein kinase type 1 (Homo sapiens) (Q14012 whole entry, looked up): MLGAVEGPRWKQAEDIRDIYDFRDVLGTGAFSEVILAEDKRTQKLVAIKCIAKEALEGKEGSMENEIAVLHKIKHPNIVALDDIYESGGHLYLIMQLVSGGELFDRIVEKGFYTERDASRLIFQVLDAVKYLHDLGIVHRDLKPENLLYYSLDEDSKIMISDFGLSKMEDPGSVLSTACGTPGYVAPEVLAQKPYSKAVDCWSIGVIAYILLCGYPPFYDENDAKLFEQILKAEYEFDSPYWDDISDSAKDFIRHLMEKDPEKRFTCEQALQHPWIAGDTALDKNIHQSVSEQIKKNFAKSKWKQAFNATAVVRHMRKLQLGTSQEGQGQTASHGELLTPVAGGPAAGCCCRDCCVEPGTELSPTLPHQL
Chain of Serine/threonine-protein kinase tousled-like 2 (Homo sapiens) (Q86UE8 whole entry, looked up): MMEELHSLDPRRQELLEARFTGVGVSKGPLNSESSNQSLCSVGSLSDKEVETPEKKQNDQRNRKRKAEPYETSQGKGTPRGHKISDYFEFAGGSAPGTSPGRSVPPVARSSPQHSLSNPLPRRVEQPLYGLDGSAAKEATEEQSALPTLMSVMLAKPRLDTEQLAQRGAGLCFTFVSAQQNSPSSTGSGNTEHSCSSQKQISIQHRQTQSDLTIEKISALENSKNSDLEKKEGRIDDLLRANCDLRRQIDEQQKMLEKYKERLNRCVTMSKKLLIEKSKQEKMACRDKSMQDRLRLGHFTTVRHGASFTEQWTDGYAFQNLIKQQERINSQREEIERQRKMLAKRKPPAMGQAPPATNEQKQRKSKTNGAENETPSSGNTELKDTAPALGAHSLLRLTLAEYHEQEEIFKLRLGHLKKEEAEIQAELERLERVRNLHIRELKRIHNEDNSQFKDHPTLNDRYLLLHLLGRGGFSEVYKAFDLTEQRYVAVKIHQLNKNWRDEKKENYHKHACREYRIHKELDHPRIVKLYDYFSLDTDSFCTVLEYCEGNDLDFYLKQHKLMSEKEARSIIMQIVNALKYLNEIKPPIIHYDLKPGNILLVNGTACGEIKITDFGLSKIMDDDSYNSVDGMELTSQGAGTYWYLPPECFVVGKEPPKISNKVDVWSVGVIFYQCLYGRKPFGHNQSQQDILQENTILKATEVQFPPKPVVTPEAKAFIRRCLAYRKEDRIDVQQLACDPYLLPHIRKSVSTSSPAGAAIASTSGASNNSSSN

% of inhibition [1]: -11.9%
Structure (SMILES): Cn1cc(-n2cnc3c(NCc4nc5cc(Cl)c(Cl)cc5[nH]4)nc(N4CCOCC4)nc32)cn1

Structure (SMILES): O=C(NOC[C@H](O)CO)c1ccc(F)c(F)c1Nc1ccc(I)cc1F
% of control [2]: 86%

% of inhibition [3]: -9%
Structure (SMILES): CN1Cc2nccc(-c3cn(C)nc3-c3ccc(F)cc3)c2C1=O

Structure (SMILES): CN(C)C/C=C/C(=O)Nc1ccc(C(=O)N2CCCC(Nc3ncc(Cl)c(-c4c[nH]c5ccccc45)n3)C2)cc1 (stereo unspecified)
% of control [4]: 100%

Structure (SMILES): O[C@H]1CC[C@H](Nc2ncc3nc(Nc4c(F)cc(F)cc4F)n([C@H]4CCOC4)c3n2)CC1
% of control [5]: 100%

Structure (SMILES): N#Cc1cccc(-c2c[nH]c3ncnc(N4CCOCC4)c23)c1
% of control [6]: 12%
